In ChEMBL document CHEMBL1201862, “PubChem BioAssay data set” (2004):
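Test compounds were applied to cells in 96-well plates for 48 hours at 5 doses. GI50 is the concentration that inhibits growth by half.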 Calls of active or inactive are those of the source. No stated cut-off is given here; in the data, active = GI50 up to about 1.1 µM and inactive = higher.

What was measured:
Assay in all cases: NCI-60 cell line screen, 48 h
[1] = test system: NCI-H226
[2] = test system: SK-OV-3
[3] = test system: HCT-116
[4] = test system: NCI-H460
[5] = test system: HCC 2998
[6] = test system: COLO 205
[7] = test system: SW-620
[8] = test system: SK-MEL-28
[9] = test system: MDA-MB-435
[10] = test system: M14
[11] = test system: DLD-1
[12] = test system: A549
[13] = test system: SR
[14] = test system: CCRF-CEM
[15] = test system: ACHN
[16] = test system: LOX IMVI
[17] = test system: SF-268
[18] = test system: RPMI-8226
[19] = test system: DU-145
[20] = test system: KM12

Q: For `CC1(O)CC2(O)C=CC3=C(C(=O)c4cccc(O)c4C3=O)C2(O)C(=O)C1O` (stereo not given), which GI50 [1] is on record?
A: The GI50 was 10.6 µM (inactive).

Q: What about the GI50 [2] of the same molecule?
A: Its GI50 is 15.2 µM (inactive).

Q: And the GI50 [3]?
A: The GI50 was 0.863 µM (active).

Q: What about the GI50 [4] of the same molecule?
A: Its GI50 is 15.6 µM (inactive).

Q: And the GI50 [5]?
A: Its GI50 is 4.09 µM (inactive).

Q: And the GI50 [6]?
A: The GI50 was 0.152 µM (active).

Q: What about the GI50 [7] of the same molecule?
A: The GI50 was 0.75 µM (active).

Q: What about the GI50 [8] of the same molecule?
A: The GI50 was 1.69 µM (inactive).

Q: And the GI50 [9]?
A: The GI50 was 1.8 µM (inactive).

Q: What about the GI50 [10] of the same molecule?
A: The GI50 was 1.37 µM (inactive).

Q: What about the GI50 [11] of the same molecule?
A: Its GI50 is 0.791 µM (active).

Q: What about the GI50 [12] of the same molecule?
A: The GI50 was 9.95 µM (inactive).

Q: And the GI50 [13]?
A: The GI50 was 2.3 µM (inactive).

Q: What about the GI50 [14] of the same molecule?
A: The GI50 was 0.206 µM (active).

Q: What about the GI50 [15] of the same molecule?
A: Its GI50 is 1.63 µM (inactive).

Q: And the GI50 [16]?
A: The GI50 was 1.47 µM (inactive).

Q: And the GI50 [17]?
A: The GI50 was 5.46 µM (inactive).

Q: And the GI50 [18]?
A: Its GI50 is 1.26 µM (inactive).

Q: And the GI50 [19]?
A: Its GI50 is 18.4 µM (inactive).

Q: What about the GI50 [20] of the same molecule?
A: The GI50 was 8 µM (inactive).

Q: How did the GI50 [1] turn out when `Cc1nc2nnc(C)n2c2c1C(=O)Nc1ccccc1N2` was run?
A: Its GI50 is > 100 µM (inactive).

Q: What about the GI50 [2] of the same molecule?
A: Its GI50 is > 100 µM (inactive).

Q: And the GI50 [3]?
A: The GI50 was > 100 µM (inactive).

Q: And the GI50 [4]?
A: The GI50 was > 100 µM (inactive).

Q: And the GI50 [5]?
A: The GI50 was > 100 µM (inactive).

Q: What about the GI50 [6] of the same molecule?
A: Its GI50 is > 100 µM (inactive).

Q: And the GI50 [7]?
A: Its GI50 is > 100 µM (inactive).

Q: And the GI50 [8]?
A: The GI50 was > 100 µM (inactive).

Q: What about the GI50 [10] of the same molecule?
A: Its GI50 is > 100 µM (inactive).

Q: And the GI50 [11]?
A: Its GI50 is > 100 µM (inactive).

Q: And the GI50 [12]?
A: Its GI50 is > 100 µM (inactive).

Q: What about the GI50 [13] of the same molecule?
A: Its GI50 is > 100 µM (inactive).

Q: And the GI50 [14]?
A: Its GI50 is > 100 µM (inactive).

Q: And the GI50 [15]?
A: The GI50 was > 100 µM (inactive).

Q: What about the GI50 [16] of the same molecule?
A: Its GI50 is > 100 µM (inactive).

Q: And the GI50 [17]?
A: Its GI50 is > 100 µM (inactive).

Q: What about the GI50 [18] of the same molecule?
A: Its GI50 is > 100 µM (inactive).

Q: And the GI50 [20]?
A: Its GI50 is > 100 µM (inactive).

Q: `N=C(NNS(=O)(=O)c1ccccc1)Oc1ccc(Br)cc1Br` was tested. Which GI50 [1] did it give?
A: The GI50 was 73.5 µM (inactive).

Q: What about the GI50 [2] of the same molecule?
A: Its GI50 is > 100 µM (inactive).

Q: What about the GI50 [3] of the same molecule?
A: Its GI50 is > 100 µM (inactive).

Q: And the GI50 [4]?
A: Its GI50 is > 100 µM (inactive).

Q: What about the GI50 [5] of the same molecule?
A: Its GI50 is > 100 µM (inactive).

Q: And the GI50 [6]?
A: Its GI50 is > 100 µM (inactive).

Q: What about the GI50 [7] of the same molecule?
A: Its GI50 is 11.9 µM (inactive).

Q: And the GI50 [8]?
A: The GI50 was > 100 µM (inactive).

Q: And the GI50 [10]?
A: The GI50 was > 100 µM (inactive).

Q: What about the GI50 [11] of the same molecule?
A: The GI50 was > 100 µM (inactive).

Q: And the GI50 [12]?
A: Its GI50 is > 100 µM (inactive).

Q: And the GI50 [13]?
A: Its GI50 is > 100 µM (inactive).

Q: What about the GI50 [14] of the same molecule?
A: Its GI50 is 71.4 µM (inactive).

Q: And the GI50 [15]?
A: Its GI50 is > 100 µM (inactive).

Q: And the GI50 [16]?
A: Its GI50 is > 100 µM (inactive).

Q: And the GI50 [17]?
A: The GI50 was > 100 µM (inactive).

Q: What about the GI50 [18] of the same molecule?
A: The GI50 was 57.8 µM (inactive).

Q: And the GI50 [20]?
A: The GI50 was > 100 µM (inactive).

Q: For `C/C(=N\NC(=N)N)C(CN1CCOCC1)C(c1ccccc1)c1c(O)c2ccccc2oc1=O` (stereo not given), which GI50 [1] is on record?
A: The GI50 was > 100 µM (inactive).

Q: What about the GI50 [2] of the same molecule?
A: Its GI50 is > 100 µM (inactive).

Q: What about the GI50 [3] of the same molecule?
A: Its GI50 is 90.6 µM (inactive).

Q: What about the GI50 [4] of the same molecule?
A: The GI50 was > 100 µM (inactive).

Q: What about the GI50 [5] of the same molecule?
A: Its GI50 is > 100 µM (inactive).

Q: And the GI50 [6]?
A: Its GI50 is 49.4 µM (inactive).

Q: And the GI50 [7]?
A: Its GI50 is > 100 µM (inactive).

Q: And the GI50 [8]?
A: Its GI50 is > 100 µM (inactive).

Q: And the GI50 [10]?
A: The GI50 was > 100 µM (inactive).

Q: And the GI50 [11]?
A: The GI50 was > 100 µM (inactive).

Q: And the GI50 [12]?
A: Its GI50 is > 100 µM (inactive).

Q: And the GI50 [13]?
A: The GI50 was 80 µM (inactive).

Q: And the GI50 [14]?
A: The GI50 was > 100 µM (inactive).

Q: And the GI50 [15]?
A: The GI50 was > 100 µM (inactive).

Q: What about the GI50 [16] of the same molecule?
A: The GI50 was > 100 µM (inactive).

Q: What about the GI50 [17] of the same molecule?
A: Its GI50 is > 100 µM (inactive).

Q: What about the GI50 [18] of the same molecule?
A: Its GI50 is 85.9 µM (inactive).

Q: And the GI50 [20]?
A: The GI50 was > 100 µM (inactive).

Q: What does the source list for `COc1cc2c(cc1OC)C(Cc1ccc(Oc3cc(CC4c5cc(OC)c(OC)cc5CCN4C)ccc3O)cc1)N(C)CC2` (stereo not given)?
A: GI50 [1]: 22.8 µM (inactive); GI50 [2]: 35.3 µM (inactive); GI50 [3]: 10.3 µM (inactive); GI50 [4]: 27.9 µM (inactive); GI50 [5]: 14.3 µM (inactive); GI50 [6]: 11.3 µM (inactive); GI50 [7]: 16.6 µM (inactive); GI50 [8]: 16.1 µM (inactive); GI50 [10]: 15.2 µM (inactive); GI50 [11]: 18.7 µM (inactive); GI50 [12]: 35.2 µM (inactive); GI50 [13]: 1.79 µM (inactive); GI50 [14]: 12.7 µM (inactive); GI50 [15]: 16.5 µM (inactive); GI50 [16]: 17.4 µM (inactive); GI50 [17]: 14.2 µM (inactive); GI50 [18]: 16.9 µM (inactive); GI50 [20]: 21.9 µM (inactive)

Q: How did the GI50 [1] turn out when `CC[C@@]1(OC(=O)CCC(=O)O)C(=O)OCc2c1cc1n(c2=O)Cc2cc3ccccc3nc2-1` was run?
A: Its GI50 is 0.193 µM (active).

Q: What about the GI50 [2] of the same molecule?
A: The GI50 was 0.23 µM (active).

Q: And the GI50 [3]?
A: The GI50 was 0.104 µM (active).

Q: And the GI50 [4]?
A: The GI50 was < 0.01 µM (active).

Q: What about the GI50 [5] of the same molecule?
A: The GI50 was 0.458 µM (active).

Q: What about the GI50 [6] of the same molecule?
A: The GI50 was 0.692 µM (active).

Q: And the GI50 [7]?
A: Its GI50 is 0.15 µM (active).

Q: And the GI50 [8]?
A: Its GI50 is 1.23 µM (inactive).

Q: And the GI50 [9]?
A: Its GI50 is 0.435 µM (active).

Q: What about the GI50 [10] of the same molecule?
A: Its GI50 is 0.0556 µM (active).

Q: And the GI50 [11]?
A: Its GI50 is 1.58 µM (inactive).

Q: And the GI50 [12]?
A: Its GI50 is 0.0773 µM (active).

Q: What about the GI50 [13] of the same molecule?
A: Its GI50 is < 0.01 µM (active).

Q: What about the GI50 [14] of the same molecule?
A: The GI50 was < 0.01 µM (active).

Q: What about the GI50 [15] of the same molecule?
A: Its GI50 is 0.0208 µM (active).

Q: What about the GI50 [16] of the same molecule?
A: Its GI50 is 0.0375 µM (active).

Q: What about the GI50 [17] of the same molecule?
A: The GI50 was 0.0395 µM (active).

Q: And the GI50 [18]?
A: Its GI50 is 0.193 µM (active).

Q: What about the GI50 [19] of the same molecule?
A: The GI50 was 0.0271 µM (active).

Q: And the GI50 [20]?
A: Its GI50 is 0.659 µM (active).

Q: For `[N-]=[N+]=NC12CC3C4CC5CC3C(C1)C(C5)C4C2`, which GI50 [1] is on record?
A: Its GI50 is > 100 µM (inactive).

Q: And the GI50 [2]?
A: Its GI50 is > 100 µM (inactive).

Q: And the GI50 [3]?
A: The GI50 was > 100 µM (inactive).

Q: And the GI50 [4]?
A: The GI50 was > 100 µM (inactive).

Q: What about the GI50 [5] of the same molecule?
A: The GI50 was > 100 µM (inactive).

Q: What about the GI50 [6] of the same molecule?
A: Its GI50 is > 100 µM (inactive).

Q: And the GI50 [7]?
A: The GI50 was > 100 µM (inactive).

Q: What about the GI50 [8] of the same molecule?
A: The GI50 was > 100 µM (inactive).

Q: What about the GI50 [10] of the same molecule?
A: Its GI50 is > 100 µM (inactive).

Q: And the GI50 [11]?
A: Its GI50 is > 100 µM (inactive).

Q: What about the GI50 [12] of the same molecule?
A: Its GI50 is > 100 µM (inactive).

Q: And the GI50 [13]?
A: The GI50 was > 100 µM (inactive).

Q: And the GI50 [14]?
A: The GI50 was > 100 µM (inactive).

Q: And the GI50 [15]?
A: Its GI50 is > 100 µM (inactive).

Q: What about the GI50 [16] of the same molecule?
A: The GI50 was > 100 µM (inactive).

Q: What about the GI50 [17] of the same molecule?
A: Its GI50 is > 100 µM (inactive).

Q: And the GI50 [18]?
A: The GI50 was > 100 µM (inactive).

Q: What about the GI50 [20] of the same molecule?
A: The GI50 was > 100 µM (inactive).
